The results in this text go back to patent publication US9453226B2, “Protection of cells from Alu-RNA-induced degeneration and inhibitors for protecting cells” (UNIVERSITY OF KENTUCKY RESEARCH FOUNDATION, priority 2011, dated 2016).

Entries after “also recorded” stand apart in the source; their conditions may differ. d = 2'-deoxy (DNA); r = 2'-OH (RNA)

Data set [1] relates to human RPE cells. Particulars: human RPE cells transfected with pAlu. The procedure:
All cell cultures were maintained at 37° C. and 5% CO2. Primary mouse RPE cells were isolated as previously described (Yang et al., 2009) and grown in Dulbecco Modified Eagle Medium (DMEM) supplemented with 20% FBS and standard antibiotics concentrations. Primary human RPE cells were isolated as previously described (Yang et al., 2008) and maintained in DMEM supplemented with 10% FBS and antibiotics. HeLa cells were maintained in DMEM supplemented with 20% FBS and standard antibiotics concentrations. THP-1 cells were cultured in RPMI 1640 medium supplemented with 10% FBS and antibiotics.
MTS assays were performed using the CellTiter 96 AQueous One Solution Cell Proliferation Assay (Promega) according to the manufacturer's instructions. For examining the cytoprotective effect of glycine in Alu RNA induced cell death, human RPE cells were transfected with pNull/pAlu. At 6 h post-transfection the cells were incubated with complete media containing glycine (5 mM) or vehicle, and cell viability was assessed after 24 h. Similarly, human RPE cells primed with LPS (5 μg/ml for 6 h) were treated with ATP (25 μM) in the presence of glycine containing media (5 mM). 30 min post ATP cell viability was assessed as described above.
MTS assays were performed using the CellTiter 96 AQueous One Solution Cell Proliferation Assay (Promega) according to the manufacturer's instructions.

Data set [2] deals with PYCARD. Description: PYCARD knockdown in human RPE cells. Format: cell-based. The settings on record: compared to control siRNAs. The procedure:
(§1) Tissues or cells were homogenized in lysis buffer (10 mM Tris base, pH 7.4, 150 mM NaCl, 1 mM EDTA, 1 mM EGTA, 1% Triton X-100, 0.5% NP-40, protease and phosphatase inhibitor cocktail (Roche)). Protein concentrations were determined using a Bradford assay kit (Bio-Rad) with bovine serum albumin as a standard. Proteins (40-100 μg) were run on NuPAGE Bis-Tris gels (Invitrogen) and transferred to Immun-Blot PVDF membranes (Bio-Rad). Cells were scraped in hot Laemmli buffer (62.5 mM Tris base, pH 6.8, 2% SDS, 5% 2-Mercaptoethanol, 10% Glycerol, 0.01% Bromophenol Blue). Samples were boiled and run on 4-20% NuPAGE Tris-Glycine gels (Invitrogen). The transferred membranes were blocked for 1 h at RT and incubated with antibodies against human Caspase-1 (1:500; Invitrogen), mouse Caspase 1 (1:500; MBL), NLRP3 (1:1000; Enzo Life Sciences), PYCARD (1:1000, RayBiotech), phospho-IRAK1 (S376) (1:500, Thermo Scientific), phospho-IRAK4 (T345) (1:500, AbboMax), DICER1 (1:2,000; Bethyl), MyD88 (1:1,000; Cell Signaling), and mouse IL-18 (1:200; MBL) at 4° C. overnight. Protein loading was assessed by immunoblotting using an anti-Vinculin antibody (1:1,000; Sigma-Aldrich). The secondary antibodies were used (1:5,000) for 1 h at RT. The signal was visualized by enhanced chemiluminescence (ECL plus) and captured by VisionWorksLS Image Acquisition and Analysis software (Version 6.7.2, UVP, LLC).

Data set [3] relates to VDAC3. The data set is described as follows: VDAC3 mRNA knockdown in human RPE cells. Format: cell-based. The settings on record: compared to control (Luc) siRNA. The text has this:
(§2) Total RNA was extracted from tissues or cells using Trizol reagent (Invitrogen) according to manufacturer's recommendations, DNase treated and reverse transcribed (QuantiTect, Qiagen). The RT products (cDNA) were amplified by real-time quantitative PCR (Applied Biosystems 7900 HT Fast Real-Time PCR system) with Power SYBR green Master Mix. Oligonucleotide primers specific for human IL1B (forward 5′-[…]-3′ and reverse 5′-[…]-3′), human IL18 (forward 5′-[…]-3′ and reverse 5′-[…]-3′), human NLRP3 (forward 5′-[…]-3′ and reverse 5′-[…]-3′), human PYCARD (forward 5′-[…]-3′ and reverse 5′-[…]-3′), human VDAC1 (forward 5′-[…]-3′ and reverse 5′-[…]-3′), human VDAC2 (forward 5′-[…]-3′ and reverse 5′-[…]-3′), human VDAC3 (forward 5′-[…]-3′ and reverse 5′-[…]-3′), human 18S rRNA (forward 5′-[…]-3′ and reverse 5′-[…]-3′), mouse Myd88 (forward 5′-[…]-3′ and reverse 5′-[…]-3′), mouse Nlrp3 (forward 5′-[…]-3′ and reverse 5′-[…]-3′), mouse Il18 (forward 5′-[…]-3′ and reverse 5′-[…]-3′), and mouse 18S rRNA (forward 5′-[…]-3′ and reverse 5′-[…]-3′) were used. […] For negative controls, no RT products were used as templates in the QPCR and verified by the absence of gel-detected bands. Relative expressions of target genes were determined by the 2^−ΔΔCt method.

The subject of data set [4] is NLRP3. Description: NLRP3 knockdown in HEK293 cells transfected with an NLRP3 expression vector. Format: cell-based. The settings on record: compared to control siRNAs. The procedure: as §1
Data set [5] has as its system NLRP3 and IL18 mRNAs. Description: NLRP3 and IL18 mRNA in human RPE cells (real-time RT-PCR). Format: cell-based.
Description: Transcript abundance was quantified by real-time RT-PCR using an Applied Biosystems 7900 HT Fast Real-Time PCR system by the 2^−ΔΔCt method.
as §2, with “used. The QPCR cycling conditions were 50° C. for 2 min, 95° C. for 10 min followed by 40 cycles of a two-step amplification program (95° C. for 15 s and 58° C. for 1 min). At the end of the amplification, melting curve analysis was applied using the dissociation protocol from the Sequence Detection system to exclude contamination with unspecific PCR products.” for “used.”
A general note: Quantitative PCR measures a nucleic acid by following its amplification.

The subject of data set [6] is mitochondrial ROS. The data set is described as follows: Mitochondrial ROS in human RPE cells (MitoSOX Red). Format: cell-based. The procedure:
Cellular ROS production was assessed using the ROS-specific probe 2′7′-dichlorodihydrofluorescin diacetate (H2DCFDA, BioChemica, Fluka). Mitochondrial ROS production was assessed using MitoSOX™ Red (Invitrogen). Sub-confluent human RPE cells were transfected with pNull or pAlu. After 24 h cells were loaded for 10 min at 37° C. with 10 μM H2DCFDA or MitoSOX™ Red (Invitrogen) mitochondrial superoxide indicator for live-cell imaging and washed twice with PBS. For H2DCFDA, fluorescence was recorded in 96-well plate using with a Synergy 4 reader (Biotek) using a FITC filter (excitation 485 nm, emission 538 nm). To visualize respiring mitochondria for colocalization with the mitochondrial ROS signal, after PBS wash cells were incubated with MitoTracker Deep Red™ (Invitrogen) for 30 min at 37° C. and then washed twice with PBS. The fluorescent signals were detected using Leica SP-5 or Zeiss Axio Observer Z1 microscopes. Phagosomal ROS production was assessed using the Fc-OXYBURST Green™ assay (Invitrogen). Sub-confluent human RPE cells were transfected with pNull or pAlu, or treated with PMA (0.5 μg/ml; Sigma-Aldrich). […] The total fluorescence from the cells was measured immediately after adding Fc-OXYBURST Green™ with a Synergy 4 reader (Biotek) using FITC filter (excitation 485 nm, emission 538 nm).

The subject of data set [7] is VDAC2. Description: VDAC2 mRNA knockdown in human RPE cells. Format: cell-based. The settings on record: compared to control (Luc) siRNA.
Description: as §2

For data set [8], the target named is T1, Caspase-1 (Homo sapiens, UniProt P29466).
T1 construct: Primary human RPE cells were isolated as previously described; endogenous in cells; host or cells: primary human RPE cells
T1 sequence (P29466 120-297 limits assumed): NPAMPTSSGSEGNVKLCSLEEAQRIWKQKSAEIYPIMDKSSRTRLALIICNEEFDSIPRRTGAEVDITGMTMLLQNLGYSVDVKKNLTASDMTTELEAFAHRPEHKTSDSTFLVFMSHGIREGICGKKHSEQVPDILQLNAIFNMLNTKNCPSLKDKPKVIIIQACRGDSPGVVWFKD
T1 sequence (P29466 317-404 limits assumed): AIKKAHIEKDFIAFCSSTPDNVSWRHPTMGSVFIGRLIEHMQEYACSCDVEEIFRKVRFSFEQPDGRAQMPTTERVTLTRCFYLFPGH
Description: Caspase-1 activation in human RPE cells (Western blot p20, Caspalux substrate cleavage). Format: cell-based. Particulars: compared to control AS. On the procedure: (§3) Protein abundance was assessed by Western blot analysis using antibodies against Caspase-1 (1:500; Invitrogen), pIRAK1 (1:500; Thermo Scientific), pIRAK4 (1:500, Abbomax), PYCARD (1:200, Santa Cruz Biotechnology), NLRP3 (1:500, Enzo Life Sciences) and Vinculin (1:1,000; Sigma-Aldrich). Caspase-1 activity was visualized using Caspalux1 E1D2 (Oncolmmunin) according to manufacturer's instructions.
as §1
Caspase-1 activity. Caspase-1 activity was visualized by incubating cells with Caspalux1E1D2 reagent (Oncolmmunin) according to the manufacturer's instructions. Caspalux1E1D2 signal was quantified reading the fluorescence (excitation 552 nm, emission 580 nm) using a Synergy 4 reader (Biotek). Quantification of fluorescence from images was performed by converting images into grayscale in Adobe Photoshop CSS, and measuring the integrated density of black and white images using ImageJ software (NIH) (Bogdanovich et al., 2008).

Data set [9] deals with IRAK1/4 phosphorylation. The data set is described as follows: IRAK1/4 phosphorylation in human RPE cells (Western blot). Format: cell-based. The settings on record: human RPE cells treated with DICER1 antisense. On the procedure: as §3, §1
For orientation: A western blot detects proteins with antibodies after separation by electrophoresis.

The subject of data set [10] is DICER1. The data set is described as follows: DICER1 abundance after antisense treatment of human RPE cells. Format: cell-based. On the procedure:
as §1

Data set [11] deals with VDAC1. The data set is described as follows: VDAC1 mRNA knockdown in human RPE cells. Format: cell-based. Particulars: compared to control (Luc) siRNA.
Description: as §2

For data set [12], the system named is RPE. The data set is described as follows: Alu RNA-induced RPE degeneration in wild-type mice, inhibitors given intravitreously. Format: in vivo. The settings on record: subretinal Alu RNA 1 μg; peptide 2 μg intravitreous.

For “5′-GAAGCUCUUCAGUUUCAdTdT-3′ (GAAGCUCUUCAGUUUCATT; siRNA; sugars from the 5' end r17 d2, backbone not given here) [PYCARD siRNA]”, in data set [1], the “pAlu-induced human RPE cell death / loss of cell viability” value is “rescued”. Moreover, the “abundance of PYCARD” value in [2] was “reduced”.

Consider “5′-GCUUUAAUCGAUGGGAAdTdT-3′ [VDAC3 siRNA]”, for which the “abundance of VDAC3 mRNA” value in data set [3] is “reduced”.

Take “5′-GUUUGACUAUCUGUUCUdTdT-3′ (GUUUGACUAUCUGUUCUTT; siRNA; sugars from the 5' end r17 d2, backbone not given here) [NLRP3 siRNA]”: the “pAlu-induced human RPE cell death / loss of cell viability” value in data set [1] is given as “rescued”. Moreover, the “abundance of NLRP3” value in data set [4] was “reduced”.

As to “5′-CCCUGGAGUUGGAGGCUdTdT-3′ [VDAC2 siRNA]”, the “pAlu-induced NLRP3 and IL18 mRNA upregulation” value in data set [5] is “prevent; also recorded: impaired”. In addition, in data set [6], the “pAlu-induced mitochondrial ROS generation” value is “prevent; also recorded: impaired”. Also, the “abundance of VDAC2 mRNA” value in data set [7] is on record as “reduced”.

As for 5′-GCUGACCTTTTTGCTUCUCA-3′ [DICER1 AS], in data set [8], the “cleavage activity of Caspase-1 (Caspalux)” value was “increases cleavage activity of Caspase-1”. The “IRAK1 and IRAK4 phosphorylation” value in data set [9] is “increases IRAK1 and IRAK4 phosphorylation”. The DICER1 abundance result in data set [10] is reported as “reduces DICER1”.

“5′-CGGAAUAGCAGCCAAGUdTdT-3′ [VDAC1 siRNA]”: the “pAlu-induced NLRP3 and IL18 mRNA upregulation” value in data set [5] was “prevent; also recorded: impaired”. Besides, in [11], the “abundance of VDAC1 mRNA” value was “reduced”. Besides, the “pAlu-induced mitochondrial ROS generation” value in data set [6] is “prevent; also recorded: impaired”.

DRQIKIWFQNRRMKWKKRDVLPGTCVWSIASE: the “Alu RNA-induced RPE degeneration” value in data set [12] was “blocked”.
